How the values were obtained:
[1] = test system: CTG-2264 tumors; assay: Combination efficacy study of anti-GD2 ADC and ATR inhibitor in osteosarcoma PDX model CTG-2264; assay type: in vivo, athymic nude mice (nu/nu); conditions: Day 23; Molecule 1 3.0 mg/kg single IV Day0; ATR inhibitor 10 mg/kg p.o. qd; combination of both
Description: The antitumor activities of selected ADCs of the present invention were tested in the CTG-2264, osteosarcoma PDX model.
Vehicle control was saline and dosed (10 mL/kg) at Day0. The group size for each treatment group was 3. The calculation of the Tumor Growth Inhibition (TGI) was done for Day 23 after treatment start, when the mean tumor volume of the control group reached 1000 mm3 (see FIG. 11, 12).

[2] = test system: M21 (melanoma) cells; assay: ADC cell killing assay (CellTiter Glo Luminescent Cell Viability assay) on M21; assay type: cell-based, human
Description: (§1) The in vitro potency of the ADCs hu14.18-IgG1.4 (K322A)-delK-βGluc Exatecan and rituximab IgG1 βGluc Exatecan, the unconjugated antibody hu14.18-IgG1.4 (K322A)-delk and the free payload Exatecan was measured on antigen-positive human tumor cell lines CHP-134 (neuroblastoma, #ACC653, DSMZ, Braunschweig, Germany), NCI-H446 (small cell lung cancer (SCLC), #HTB-171, ATCC, Manassas, VA, USA) as well as M21 (melanoma, Scripps Research Institute, La Jolla, CA, USA) and antigen-negative human tumor cell line MDA-MB-468 (breast carcinoma, #ACC738, DSMZ, Braunschweig, Germany) using the CellTiter Glo® Luminescent Cell Viability assay (#G7573, Promega Corporation, Madison, WI, USA).
(§2) The cell lines CHP-134, NCI-H446 and MDA-MB-468 were cultured as instructed by vendor and maintained in RPMI1640 medium with GlutaMAX™ supplement (#61870-010, Gibco™, purchased from Thermo Fisher Scientific, Waltham, MA, USA), 1 mM sodium pyruvate (#11360-070, Gibco™, Thermo Fisher Scientific) and 10% fetal bovine serum (FBS) (#S0615, Sigma Aldrich, St. Louis, MO, USA). The melanoma cell line M21 was cultured in DMEM with stable L-glutamine (#41965-039, Gibco™, Thermo Fisher Scientific) and 10% FBS. […]

[3] = test system: MDA-MB-468 (breast carcinoma) cells; assay: ADC cell killing assay (CellTiter Glo Luminescent Cell Viability assay) on MDA-MB-468; assay type: cell-based, human
Description: as §1, §2

[4] = test system: NCI-H446 (small cell lung cancer) cells; assay: ADC cell killing assay (CellTiter Glo Luminescent Cell Viability assay) on NCI-H446; assay type: cell-based, human
Description: as §1, §2

[5] = test system: CHP-134 (neuroblastoma) cells; assay: ADC cell killing assay (CellTiter Glo Luminescent Cell Viability assay) on CHP-134; assay type: cell-based, human
Description: as §1, §2

[6] = cited from earlier work

Nc1nn2cc(F)cnc2c1C(=O)Nc1cncc(F)c1N1CCC(C(=O)N2CCN(C3COC3)CC2)CC1 [ATR inhibitor]
tumor growth inhibition (TGI) [1]: 67%

CC[C@@]1(O)C(=O)OCc2c1cc1n(c2=O)Cc2c-1nc1cc(F)c(C)c3c1c2[C@@H](N)CC3 [Exatecan, (1S,9S)-1-Amino-9-ethyl-5-fluoro-9-hydroxy-4-methyl-1,2,3,9,12,15-hexahydro-10H,13H-benzo[de]pyrano[3′,4′:6,7]indolizino[1,2-b]quinoline-10,13-dione]
IC50 ([2]; Homo sapiens, M21, 144 h): 1.1 nM
Span (%) ([2]; M21, % efficacy at highest test concentration (100 nM for Molecule 1,2,4; 1 μM for Molecule 3), geomean): 95%
IC50 ([3]; Homo sapiens, MDA-MB-468, 144 h): 0.3 nM
Span (%) ([3]; MDA-MB-468, % efficacy at highest test concentration (100 nM for Molecule 1,2,4; 1 μM for Molecule 3), geomean): 100%
IC50 ([4]; Homo sapiens, NCI-H446, 144 h): 0.07 nM
Span (%) ([4]; NCI-H446, % efficacy at highest test concentration (100 nM for Molecule 1,2,4; 1 μM for Molecule 3), geomean): 96%
Span (%) ([5]; CHP-134, % efficacy at highest test concentration (100 nM for Molecule 1,2,4; 1 μM for Molecule 3), geomean): 100%
IC50 ([5]; Homo sapiens, CHP-134, 144 h): 0.2 nM

B1: Dinutaximab beta (antibody, chains of the INN, looked up, V domains shown)
VH: EVQLLQSGPELEKPGASVMISCKASGSSFTGYNMNWVRQNIGKSLEWIGAIDPYYGGTSYNQKFKGRATLTVDKSSSTAYMHLKSLTSEDSAVYYCVSGMEYWGQGTSVTVSS
VL: EIVMTQSPATLSVSPGERATLSCRSSQSLVHRNGNTYLHWYLQKPGQSPKLLIHKVSNRFSGVPDRFSGSGSGTDFTLKISRVEAEDLGVYFCSQSTHVPPLTFGAGTKLELK
clinical signs ([6]; cynomolgus monkeys, EMA/263814/2017): clinical signs that were interpreted as acute pain
histopathology of peripheral nervous system ([6]; infused 4 h/day for 10 consecutive days, 30 and 100 mg/m^2/day): histopathological changes were noted on day 15 in the peripheral nerves and visceral nervous innervation of organs
